Data taken from publication PMC7353089, “The Hepatotoxicity of Alantolactone and Germacrone: Their Influence on Cholesterol and Lipid Metabolism in Differentiated HepaRG Cells” (Nutrients, 2020).

Key:
[1] = tested on: HMGCS mRNA; experiment: RT-qPCR mRNA expression in dHepaRG cells; type: cell-based, human
Protocol: Three concentrations were selected for each compound (non-toxic, non-toxic/slightly toxic and toxic). The cholesterol level of the dHepaRG cells was measured after a multiple exposure of the highest non-toxic concentrations of tested compounds. […] The expression changes of genes and proteins related to cholesterol metabolism were measured in both single and multiple exposure experiments.
All treatments were performed in triplicates and every experiment was performed three times. The cells were washed twice with ice cold phosphate-buffered saline (PBS), scrapped and stored at −80 °C until use. Total RNA from cells was isolated using TriReagent according to the manufacturer’s instructions (Biotech, Prague, Czech Republic). The purified RNA was dissolved in 40 µL of diethyl pyrocarbonate (DEPC)-treated water (0.01% DEPC in HPLC water, autoclaved) and stored at −80 °C. The measurement of absorbance at 260 and 280 nm using the NanoDrop ND-1000 UV–VIS Spectrophotometer (Thermo Fisher Scientific, Pardubice, Czech Republic) was used to determine RNA yields and purity. Subsequently, the RNA (4 µg) was treated with 2 U of DNase I (New England Biolabs, Ipswich, MA, USA) in a final volume of 30 µL for 25 min at 37 °C, 1.5 µL of 0.1 M ethylenediaminetetraacetic acid was added and the DNAse was inactivated by heat (5 min at 75 °C). The solution was diluted to a concentration of 0.1 µg/µL. The DNAse treated RNA was stored at −80 °C until further analyses. The first strand cDNA was synthesized from 800 ng of total RNA and 1 µL of 50 µM random hexamers (Generi Biotech, Hradec Kralove, Czech Republic) using ProtoScript II reverse transcriptase (New England Biolabs, Ipswich, MA, USA). After the initial heat denaturation of total RNA (65 °C for 5 min), 4 µL of 5× ProtoScript II RT Reaction Buffer, 2 µL of 10× dithiothreitol (DTT), 2 µL of deoxynucleotide (dNTP) Mix 5 mM, 3.5 µL of H2O, and 0.5 µL of ProtoScript II 200 U/µL were added and mixed by pipetting. The reactions (20 µL) were incubated for 10 min at 25 °C, for 50 min at 42 °C, and for 5 min at 80 °C. The obtained cDNAs were diluted 1:6 by DEPC water. The qPCR analyses were carried out using QuantStudio 6 Flex (Applied Biosystems, Foster City, CA, USA) with SYBR green I (Xceed qPCR SG Mix, Institute of Applied Biotechnologies, Prague, Czech Republic) detection according to the manufacturer’s protocol. […] Fluorescence data were recorded at the end of each amplification step. Relative expression levels of the target genes were calculated as fold changes in triplicates for each group using the 2^−ΔΔCt method [28] by normalization to the geometric mean of the Ct values of Sdha and Ywhaz, which were used as reference genes.

[2] = tested on: HMGCR mRNA; experiment: RT-qPCR mRNA expression in dHepaRG cells; type: cell-based, human; details: single exposure, the highest concentration
Protocol: The mRNA and protein expression changes were measured after a single administration of ALA and GER. Three concentrations were selected for each compound (non-toxic, non-toxic/slightly toxic and toxic). The cholesterol level of the dHepaRG cells was measured after a multiple exposure of the highest non-toxic concentrations of tested compounds. ATL (30 µM) and GER (100 µM) were administered four times every 24 h. The expression changes of genes and proteins related to cholesterol metabolism were measured in both single and multiple exposure experiments.
All treatments were performed in triplicates and every experiment was performed three times. The cells were washed twice with ice cold phosphate-buffered saline (PBS), scrapped and stored at −80 °C until use. Total RNA from cells was isolated using TriReagent according to the manufacturer’s instructions (Biotech, Prague, Czech Republic). The purified RNA was dissolved in 40 µL of diethyl pyrocarbonate (DEPC)-treated water (0.01% DEPC in HPLC water, autoclaved) and stored at −80 °C. The measurement of absorbance at 260 and 280 nm using the NanoDrop ND-1000 UV–VIS Spectrophotometer (Thermo Fisher Scientific, Pardubice, Czech Republic) was used to determine RNA yields and purity. Subsequently, the RNA (4 µg) was treated with 2 U of DNase I (New England Biolabs, Ipswich, MA, USA) in a final volume of 30 µL for 25 min at 37 °C, 1.5 µL of 0.1 M ethylenediaminetetraacetic acid was added and the DNAse was inactivated by heat (5 min at 75 °C). The solution was diluted to a concentration of 0.1 µg/µL. The DNAse treated RNA was stored at −80 °C until further analyses. […] Fluorescence data were recorded at the end of each amplification step. Relative expression levels of the target genes were calculated as fold changes in triplicates for each group using the 2^−ΔΔCt method by normalization to the geometric mean of the Ct values of Sdha and Ywhaz, which were used as reference genes.

[3] = tested on: proliferative liver (HepG2, HuH-7, LO2), breast (MCF7, MDA-MB-231), and glioblastoma cancer cell lines; details: after 12 to 24 h; read-out: IC50 values in proliferative cancer cell lines (approximate); cited from earlier work
[4] = tested on: ALB mRNA; experiment: RT-qPCR mRNA expression in dHepaRG cells; type: cell-based, human; details: after 6 h of exposure
Protocol: (§1) Three concentrations were selected for each compound (non-toxic, non-toxic/slightly toxic and toxic). […] The expression changes of genes and proteins related to cholesterol metabolism were measured in both single and multiple exposure experiments.
(§2) All treatments were performed in triplicates and every experiment was performed three times. The cells were washed twice with ice cold phosphate-buffered saline (PBS), scrapped and stored at −80 °C until use. Total RNA from cells was isolated using TriReagent according to the manufacturer’s instructions (Biotech, Prague, Czech Republic). The purified RNA was dissolved in 40 µL of diethyl pyrocarbonate (DEPC)-treated water (0.01% DEPC in HPLC water, autoclaved) and stored at −80 °C. The measurement of absorbance at 260 and 280 nm using the NanoDrop ND-1000 UV–VIS Spectrophotometer (Thermo Fisher Scientific, Pardubice, Czech Republic) was used to determine RNA yields and purity. […] Fluorescence data were recorded at the end of each amplification step. Relative expression levels of the target genes were calculated as fold changes in triplicates for each group using the 2^−ΔΔCt method [28] by normalization to the geometric mean of the Ct values of Sdha and Ywhaz, which were used as reference genes.

[5] = tested on: A1AT mRNA; experiment: RT-qPCR mRNA expression in dHepaRG cells; type: cell-based, human; details: after 24 h
Protocol: as §1, §2

Row | SMILES | HMGCS mRNA level ([1]; multiple exposure: four applications every 24 h, analyzed 12 h after the last, 30 μM ATL, 100 μM GER, 20 μM LOV) | HMGCS mRNA level ([1]; single exposure, the highest concentration, 6-h exposure) | HMGCS mRNA level ([1]; single exposure, the highest concentration, 12- and 24-h exposure) | HMGCR mRNA level ([2]; 6-h exposure) | HMGCR mRNA level ([2]; 12- and 24-h exposure) | IC50 [3] [µM] | ALB mRNA expression [4] | A1AT mRNA expression [5]
1 | C=C1C(=O)O[C@@H]2C[C@@]3(C)CCC[C@H](C)C3=C[C@H]12 [ATL, alantolactone] | induced | induction | decreased level | induction | decreased level | 10 to 30 | – | –
2 | CC(C)=C1C/C=C(\C)CC/C=C(\C)CC1=O [GER, germacrone] | – | – | – | – | – | 150 to 250 | induced | inhibited
